{"source": "ChEMBL document CHEMBL1151992", "about": "“Arenamides A-C, cytotoxic NFkappaB inhibitors from the marine actinomycete Salinispora arenicola” (J Nat Prod, 2009)", "key": {"Enterococcus faecium": {"test_system": "Enterococcus faecium", "test": "Antimicrobial activity against vancomycin-resistant Enterococcus faecium", "type": "functional, organism-based"}, "Staphylococcus aureus": {"test_system": "Staphylococcus aureus", "test": "Antimicrobial activity against methicillin-resistant Staphylococcus aureus", "type": "functional, organism-based"}, "Candida albicans": {"test_system": "Candida albicans", "test": "Antimicrobial activity against amphotericin-resistant Candida albicans", "type": "functional, organism-based"}, "[1]": {"test": "Inhibition of TNF-induced NF-kappaB activation transfected in HEK293 cells by luciferase reporter gene assay", "type": "cell-based"}, "RAW264.7 [2]": {"test_system": "RAW264.7", "test": "Cytotoxicity against mouse RAW264.7 cells at 3 to 10 uM by sulforhodamine B assay", "type": "cell-based", "details": "raw264.7, 10 µM"}, "RAW264.7 [3]": {"test_system": "RAW264.7", "test": "Antiinflammatory activity in mouse RAW264.7 cells assessed as inhibition of LPS-stimulated nitric oxide production at 3 to 10 uM treated 30 mins prior to LPS challenge measured after 24 hrs by Griess reagent method", "type": "functional", "parameters": "scale not given: the % may be the effect or the level left"}, "RAW264.7 [4]": {"test_system": "RAW264.7", "test": "Antiinflammatory activity in mouse RAW264.7 cells assessed as inhibition of LPS-stimulated nitric oxide production treated 30 mins prior to LPS challenge measured after 24 hrs by Griess reagent method", "type": "functional, cell-based"}, "RAW264.7 [5]": {"test_system": "RAW264.7", "test": "Antiinflammatory activity in mouse RAW264.7 cells assessed as inhibition of LPS-stimulated PGE2 production at 3 to 10 uM treated 30 mins prior to LPS challenge measured after 24 hrs by ELISA", "type": "functional", "parameters": "scale not given: the % may be the effect or the level left"}, "HCT-116": {"test_system": "HCT-116", "test": "Cytotoxicity against human HCT116 cells", "type": "functional, cell-based"}}, "note": "Active and inactive are the calls of the source. The calls are words filed in the database; no cut-off is given here."}
{"compound": "CCCCCC[C@@H](C)[C@H](O)CC(=O)NCC(=O)N[C@H](C(=O)C[C@@H](CC(C)C)C(=O)N[C@@H](C)C(=O)N[C@@H](Cc1ccccc1)C(=O)OC)C(C)C", "values": [{"measurement": "Activity", "setting": "Enterococcus faecium", "result": "inactive"}, {"measurement": "Activity", "setting": "Staphylococcus aureus", "result": "inactive"}, {"measurement": "Activity", "setting": "Candida albicans", "result": "inactive"}]}
{"compound": "CCCCCC[C@H](C)[C@@H]1CC(=O)NCC(=O)N[C@@H](C(C)C)C(=O)N[C@@H](CC(C)C)C(=O)N[C@@H](C)C(=O)N[C@@H](CCSC)C(=O)O1", "values": [{"measurement": "Activity", "setting": "Enterococcus faecium", "result": "inactive"}, {"measurement": "Activity", "setting": "Staphylococcus aureus", "result": "inactive"}, {"measurement": "Activity", "setting": "Candida albicans", "result": "inactive"}]}
{"compound": "CCCCCC[C@H](C)[C@@H]1CC(=O)NCC(=O)N[C@@H](C(C)C)C(=O)N[C@@H](CC(C)C)C(=O)N[C@@H](C)C(=O)N[C@@H](Cc2ccccc2)C(=O)O1", "note": "[ARENAMIDE A]", "values": [{"measurement": "IC50", "setting": "[1]", "result": 3700, "unit": "nM"}, {"measurement": "Activity", "setting": "RAW264.7 [2]", "result": "Non-toxic"}, {"measurement": "Activity", "setting": "RAW264.7 [3]", "result": 35, "unit": "%"}, {"measurement": "Activity", "setting": "RAW264.7 [4]", "result": "Dose-dependent effect"}, {"measurement": "Activity", "setting": "RAW264.7 [5]", "result": 50, "unit": "%"}, {"measurement": "Activity", "setting": "Enterococcus faecium", "result": "inactive"}, {"measurement": "Activity", "setting": "Staphylococcus aureus", "result": "inactive"}, {"measurement": "IC50", "setting": "HCT-116", "result": 13.2, "unit": "µg/mL"}, {"measurement": "Activity", "setting": "Candida albicans", "result": "inactive"}]}
{"compound": "CCCC[C@H](C)[C@@H]1CC(=O)NCC(=O)N[C@@H](C(C)C)C(=O)N[C@@H](CC(C)C)C(=O)N[C@@H](C)C(=O)N[C@@H](Cc2ccccc2)C(=O)O1", "note": "[ARENAMIDE B]", "values": [{"measurement": "IC50", "setting": "[1]", "result": 1700, "unit": "nM"}, {"measurement": "Activity", "setting": "RAW264.7 [2]", "result": "Non-toxic"}, {"measurement": "Activity", "setting": "RAW264.7 [3]", "result": 35, "unit": "%"}, {"measurement": "Activity", "setting": "RAW264.7 [4]", "result": "Dose-dependent effect"}, {"measurement": "Activity", "setting": "RAW264.7 [5]", "result": 50, "unit": "%"}, {"measurement": "Activity", "setting": "Enterococcus faecium", "result": "inactive"}, {"measurement": "Activity", "setting": "Staphylococcus aureus", "result": "inactive"}, {"measurement": "IC50", "setting": "HCT-116", "result": 19.2, "unit": "µg/mL"}, {"measurement": "Activity", "setting": "Candida albicans", "result": "inactive"}]}
